Data published in patent publication US8192962B2, “Processes for detecting toxic substances” (Daikin Industries, Ltd., priority 2001, dated 2012).

System: Genes belonging to other category
Assay: DNA chip mRNA expression in yeast, genes belonging to other category (Table 9)
Assay type: cell-based, Saccharomyces cerevisiae S288C
How it was run: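 S. cerevisiae S288C grown at 25° C in YPD were exposed in log phase for two hours to one toxic chemical at a growth-inhibiting, non-lethal concentration; untreated cells served as control. Poly(A) mRNA was reverse-transcribed with Cy3/Cy5-dUTP and hybridized to a whole-genome yeast DNA chip at 65° C for over 12 hours; values are fluorescence ratios versus untreated.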

## Cl[C@H]1[C@H](Cl)[C@@H](Cl)[C@@H](Cl)[C@H](Cl)[C@H]1Cl [(7), γ-hexachlorocyclohexane]
Yeast gene YAR010C
  The level of expressed mRNA in the presence of chemical substance/The level of expressed mRNA in the absence of chemical substance: 1.9
Yeast gene YBL005W-A
  The level of expressed mRNA in the presence of chemical substance/The level of expressed mRNA in the absence of chemical substance: 1.4
Yeast gene YBL041W
  The level of expressed mRNA in the presence of chemical substance/The level of expressed mRNA in the absence of chemical substance: 1.6
Yeast gene YBL043W
  The level of expressed mRNA in the presence of chemical substance/The level of expressed mRNA in the absence of chemical substance: 1.5
Yeast gene YBL078C
  The level of expressed mRNA in the presence of chemical substance/The level of expressed mRNA in the absence of chemical substance: 3.1
Yeast gene YBR214W
  The level of expressed mRNA in the presence of chemical substance/The level of expressed mRNA in the absence of chemical substance: 1.1
Yeast gene YCL020W
  The level of expressed mRNA in the presence of chemical substance/The level of expressed mRNA in the absence of chemical substance: 1.5
Yeast gene YCL027W
  The level of expressed mRNA in the presence of chemical substance/The level of expressed mRNA in the absence of chemical substance: 1.0
Yeast gene YCR004C
  The level of expressed mRNA in the presence of chemical substance/The level of expressed mRNA in the absence of chemical substance: 1.4
Yeast gene YCR071C
  The level of expressed mRNA in the presence of chemical substance/The level of expressed mRNA in the absence of chemical substance: 1.4
Yeast gene YCR088W
  The level of expressed mRNA in the presence of chemical substance/The level of expressed mRNA in the absence of chemical substance: 1.2
Yeast gene YDL008W
  The level of expressed mRNA in the presence of chemical substance/The level of expressed mRNA in the absence of chemical substance: 2.0
Yeast gene YDL238C
  The level of expressed mRNA in the presence of chemical substance/The level of expressed mRNA in the absence of chemical substance: 1.4
Yeast gene YDR055W
  The level of expressed mRNA in the presence of chemical substance/The level of expressed mRNA in the absence of chemical substance: 1.5
Yeast gene YDR084C
  The level of expressed mRNA in the presence of chemical substance/The level of expressed mRNA in the absence of chemical substance: 0.9
Yeast gene YDR085C
  The level of expressed mRNA in the presence of chemical substance/The level of expressed mRNA in the absence of chemical substance: 4.1
Yeast gene YDR104C
  The level of expressed mRNA in the presence of chemical substance/The level of expressed mRNA in the absence of chemical substance: 1.0
Yeast gene YDR115W
  The level of expressed mRNA in the presence of chemical substance/The level of expressed mRNA in the absence of chemical substance: 1.6
Yeast gene YDR259C
  The level of expressed mRNA in the presence of chemical substance/The level of expressed mRNA in the absence of chemical substance: 2.8
Yeast gene YDR315C
  The level of expressed mRNA in the presence of chemical substance/The level of expressed mRNA in the absence of chemical substance: 1.4
Yeast gene YDR358W
  The level of expressed mRNA in the presence of chemical substance/The level of expressed mRNA in the absence of chemical substance: 2.8
Yeast gene YDR388W
  The level of expressed mRNA in the presence of chemical substance/The level of expressed mRNA in the absence of chemical substance: 1.1
Yeast gene YDR432W
  The level of expressed mRNA in the presence of chemical substance/The level of expressed mRNA in the absence of chemical substance: 0.5
Yeast gene YDR481C
  The level of expressed mRNA in the presence of chemical substance/The level of expressed mRNA in the absence of chemical substance: 0.7
Yeast gene YDR510W
  The level of expressed mRNA in the presence of chemical substance/The level of expressed mRNA in the absence of chemical substance: 1.6
Yeast gene YEL042W
  The level of expressed mRNA in the presence of chemical substance/The level of expressed mRNA in the absence of chemical substance: 0.5
Yeast gene YEL066W
  The level of expressed mRNA in the presence of chemical substance/The level of expressed mRNA in the absence of chemical substance: 1.8
Yeast gene YER039C
  The level of expressed mRNA in the presence of chemical substance/The level of expressed mRNA in the absence of chemical substance: 1.3
Yeast gene YER107C
  The level of expressed mRNA in the presence of chemical substance/The level of expressed mRNA in the absence of chemical substance: 1.0
Yeast gene YER130C
  The level of expressed mRNA in the presence of chemical substance/The level of expressed mRNA in the absence of chemical substance: 1.5
Yeast gene YFL022C
  The level of expressed mRNA in the presence of chemical substance/The level of expressed mRNA in the absence of chemical substance: 0.3
Yeast gene YFL028C
  The level of expressed mRNA in the presence of chemical substance/The level of expressed mRNA in the absence of chemical substance: 2.0
Yeast gene YFL043C
  The level of expressed mRNA in the presence of chemical substance/The level of expressed mRNA in the absence of chemical substance: 1.8
Yeast gene YGL158W
  The level of expressed mRNA in the presence of chemical substance/The level of expressed mRNA in the absence of chemical substance: 1.3
Yeast gene YGL229C
  The level of expressed mRNA in the presence of chemical substance/The level of expressed mRNA in the absence of chemical substance: 2.2
Yeast gene YGR136W
  The level of expressed mRNA in the presence of chemical substance/The level of expressed mRNA in the absence of chemical substance: 1.5
Yeast gene YGR189C
  The level of expressed mRNA in the presence of chemical substance/The level of expressed mRNA in the absence of chemical substance: 0.6
Yeast gene YGR213C
  The level of expressed mRNA in the presence of chemical substance/The level of expressed mRNA in the absence of chemical substance: 7.0
Yeast gene YGR257C
  The level of expressed mRNA in the presence of chemical substance/The level of expressed mRNA in the absence of chemical substance: 2.4
Yeast gene YHR004C
  The level of expressed mRNA in the presence of chemical substance/The level of expressed mRNA in the absence of chemical substance: 1.5
Yeast gene YHR071W
  The level of expressed mRNA in the presence of chemical substance/The level of expressed mRNA in the absence of chemical substance: 1.0
Yeast gene YHR139C
  The level of expressed mRNA in the presence of chemical substance/The level of expressed mRNA in the absence of chemical substance: 1.5
Yeast gene YHR142W
  The level of expressed mRNA in the presence of chemical substance/The level of expressed mRNA in the absence of chemical substance: 0.9
Yeast gene YIL123W
  The level of expressed mRNA in the presence of chemical substance/The level of expressed mRNA in the absence of chemical substance: 0.5
Yeast gene YIL140W
  The level of expressed mRNA in the presence of chemical substance/The level of expressed mRNA in the absence of chemical substance: 0.5
Yeast gene YJL089W
  The level of expressed mRNA in the presence of chemical substance/The level of expressed mRNA in the absence of chemical substance: 1.1
Yeast gene YJL116C
  The level of expressed mRNA in the presence of chemical substance/The level of expressed mRNA in the absence of chemical substance: 0.8
Yeast gene YJR004C
  The level of expressed mRNA in the presence of chemical substance/The level of expressed mRNA in the absence of chemical substance: 0.4
Yeast gene YJR086W
  The level of expressed mRNA in the presence of chemical substance/The level of expressed mRNA in the absence of chemical substance: 1.7
Yeast gene YKL008C
  The level of expressed mRNA in the presence of chemical substance/The level of expressed mRNA in the absence of chemical substance: 1.4
